Series [1] has as its target T1, human FSH receptor (Homo sapiens, UniProt P23945).
T1 construct: host or cells: CHO-K1 (CHO FSH-R 6CRE-Luc, 1D7 cells)
T1 sequence (P23945 18-695): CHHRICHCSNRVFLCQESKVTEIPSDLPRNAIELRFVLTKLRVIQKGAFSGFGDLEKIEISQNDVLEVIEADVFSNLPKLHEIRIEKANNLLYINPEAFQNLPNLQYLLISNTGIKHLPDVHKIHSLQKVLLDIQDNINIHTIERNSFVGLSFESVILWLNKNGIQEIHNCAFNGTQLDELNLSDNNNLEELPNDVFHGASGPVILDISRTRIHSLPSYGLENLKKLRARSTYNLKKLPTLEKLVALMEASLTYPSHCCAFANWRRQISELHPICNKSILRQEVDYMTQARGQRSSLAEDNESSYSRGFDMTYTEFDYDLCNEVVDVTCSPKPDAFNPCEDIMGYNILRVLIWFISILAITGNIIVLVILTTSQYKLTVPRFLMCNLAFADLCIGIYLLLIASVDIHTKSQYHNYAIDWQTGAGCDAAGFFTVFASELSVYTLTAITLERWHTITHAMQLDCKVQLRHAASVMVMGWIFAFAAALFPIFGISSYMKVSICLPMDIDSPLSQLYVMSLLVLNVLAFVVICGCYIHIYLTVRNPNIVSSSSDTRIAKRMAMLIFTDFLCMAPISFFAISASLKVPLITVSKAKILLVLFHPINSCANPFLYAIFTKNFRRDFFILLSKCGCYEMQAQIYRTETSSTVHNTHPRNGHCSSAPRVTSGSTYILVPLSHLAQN
Kind of series: FSH receptor-dependent CRE-luciferase reporter gene assay (CHO FSH-R 6CRE-Luc cells). The series is classed as cell-based. Conditions: 2-dose format; test concentration in parentheses = 30 μM; percent inhibition of response to EC50 of FSH; read-out: CRE % inhibition. (In a reporter assay the amount or activity of a reporter protein is the signal.)

Drawing on patent publication US7678787B2, “Pyrrolobenzodiazepine pyridine carboxamides and derivatives as follicle-stimulating hormone receptor antagonists” (Wyeth, priority 2005, dated 2010), this text covers inhibition and melting point for 19 compounds.

Take `CC(C)(C)c1ccc(OCC(=O)N2Cc3ccc(C(=O)NCc4cccnc4)n3Cc3ccccc32)cc1` [Example 135]: the melting point came out at 85 °C. For the same compound, in series [1], the inhibition at 30 µM came out at 34%.

In turn, `O=C(c1ccccc1)c1ccccc1-c1ccc(C(=O)N2Cc3ccc(C(=O)NCc4cccnc4)n3Cc3ccccc32)cc1` [Example 60] gave a melting point of 198 to 199 °C. In addition, the inhibition at 30 µM in series [1] turned out to be 29%.

As for `O=C(NCc1cccnc1)c1ccc2n1Cc1ccccc1N(C(=O)c1cccc3ccccc13)C2` [Example 145], the melting point worked out at 188 °C. Besides, in series [1], the inhibition at 30 µM amounted to 40%.

`O=C(NCc1cccnc1)c1ccc2n1Cc1ccccc1N(C(=O)Cc1ccc(-c3ccccc3)cc1)C2` [Example 143]: the melting point was 153 to 155 °C. Besides, the inhibition at 30 µM in series [1] came to 48%.

The compound `O=C(NCc1cccnc1)c1ccc2n1Cc1ccccc1N(C(=O)c1c(F)cccc1F)C2` [Example 86] had a melting point of 103 to 109 °C. For the same compound, in series [1], the inhibition at 30 µM is 40%.

The compound `O=C(NCc1cccnc1)c1ccc2n1Cc1ccccc1N(C(=O)c1ccccc1C(F)(F)F)C2` [Example 82] yielded a melting point of 157 to 158 °C. Further, in series [1], the inhibition at 30 µM stood at 2.4%.

`O=C(NCc1cccnc1)c1ccc2n1Cc1ccccc1N(C(=O)c1ccc(-c3cncnc3)cc1)C2` [Example 106]: the melting point fell in the range of 172 to 175 °C. In addition, the inhibition at 30 µM in series [1] turned out to be 21%.

As for `COC(=O)c1ccc(C(=O)N2Cc3ccc(C(=O)NCc4cccnc4)n3Cc3ccccc32)cc1` [Example 87, METHYL 4-{[3-{[(PYRIDIN-3-YLMETHYL)AMINO]CARBONYL}-5H-PYRROLO[2,1-C][1,4]BENZODIAZEPIN-10(11H)-YL]CARBONYL}BENZOATE], the melting point was 170 to 172 °C. Further, the inhibition at 30 µM in series [1] was 38%.

The compound `CC(Oc1ccccc1)C(=O)N1Cc2ccc(C(=O)NCc3cccnc3)n2Cc2ccccc21` (centres unmarked) [Example 137] returned a melting point of 83 °C. The inhibition at 30 µM in series [1] is 16%.

In turn, `O=C(NCc1cccnc1)c1ccc2n1Cc1ccccc1N(C(=O)/C=C/c1ccccc1)C2` [Example 144] displayed a melting point of 175 °C. Further, the inhibition at 30 µM in series [1] amounted to 35%.

As for `CC(C)(C)CC(=O)N1Cc2ccc(C(=O)NCc3cccnc3)n2Cc2ccccc21` [Example 148], the melting point is 103 to 107 °C. The inhibition at 30 µM in series [1] worked out at 35%.

The compound `O=C(NCc1cccnc1)c1ccc2n1Cc1ccccc1N(C(=O)c1ccccc1F)C2` [Example 97] yielded a melting point of 142 to 143 °C. The inhibition at 30 µM in series [1] was 18%.

`O=C(NCc1cccnc1)c1ccc2n1Cc1ccccc1N(C(=O)c1cc(F)cc(F)c1)C2` [Example 95] gave a melting point of 138 to 140 °C. Moreover, the inhibition at 30 µM in series [1] was determined as 45%.

On to `O=C(NCc1cccnc1)c1ccc2n1Cc1ccccc1N(C(=O)c1cccs1)C2` [Example 115], for which the inhibition at 30 µM in series [1] turned out to be 34%.

For the compound `O=C(NCc1cccnc1)c1ccc2n1Cc1ccccc1N(C(=O)c1ccc(Cl)nc1)C2` [Example 117], the inhibition at 30 µM in series [1] came to 24%.

On to `CC(C)C(=O)N1Cc2ccc(C(=O)NCc3cccnc3)n2Cc2ccccc21` [Example 150], for which the inhibition at 30 µM in series [1] was 20%.

For `Cc1cc(C(=O)N2Cc3ccc(C(=O)NCc4cccnc4)n3Cc3ccccc32)ccc1-c1ccc(Cl)c(Cl)c1` [Example 25], the inhibition at 30 µM in series [1] came to 11%.

As for `O=C(NCc1cccnc1)c1ccc2n1Cc1ccccc1N(C(=O)c1cccnc1)C2` [Example 124], the inhibition at 30 µM in series [1] is 7%.

In the case of `COc1ccccc1-c1ccc(S(=O)(=O)N2Cc3ccc(C(=O)NCc4cccnc4)n3Cc3ccccc32)cc1` [Example 71], the inhibition at 30 µM in series [1] is 17.3%.

What is called inhibition is how much of the control response was suppressed. One may read the melting point as the temperature of the solid-liquid transition.
